Measured values as given in patent publication EP1388013B1, “COMPOSITIONS AND METHODS FOR THE USE OF FIBRONECTIN FRAGMENTS IN THE DIAGNOSIS OF CANCER” (THE REGENTS OF THE UNIVERSITY OF MICHIGAN, priority 2001, dated 2002).
No end group written: not given here.

Key:
[1] = tested on: metastatic SUM-52 PE breast cancer cells; test: SU-ECM invasion assay, SUM-52 PE cells; assay type: cell-based, human; conditions: PHSRN sequence of fibronectin alone; Example 4
Experimental: (§1) Adult Strongylocentrotus purpuratus sea urchins were obtained from Pacific BioMarine, and their embryos were cultured to the early pluteus stage in artificial sea water at 15°C. SU-ECM were prepared from them by treatment with nonionic detergent and sterilized by dilution in the appropriate media.
(§2) Cells were harvested by rinsing in Hanks balanced salt solution, followed by brief treatment with 0.25% trypsin, 0.02% EDTA, and pelleting and resuspension in the appropriate medium with or without 5% FCS at a density of about 50,000 cells per ml. When appropriate, purified bovine plasma fibronectin (Sigma, St. Louis, Mo), purified 120 kDa chymotryptic fragment (Gibco BRL), PHSRN or PHSCN peptides (synthesized at the Biomedical Research Core Facilities of the University of Michigan), or GRGDSP or GRGESP peptides (Gibco BRL) were added to the resuspended cells prior to placement of the cells on SU-ECM. In each well of a plate used for an invasion assay, SU-ECM were placed in 0.5 ml of the appropriate medium, and 0.5ml of the resuspended cells dropped on their exterior surfaces. Invasion assays were incubated 1 to 16 hours prior to scoring. If some circumstances, invasion assays were fixed in phosphate-buffered saline (PBS) with 2% formaldehyde for 5 minutes at room temperature, then rinsed into PBS.
(§3) Invasion assays were coded and scored blindly by microscopic examination under phase contrast at 200- and 400-fold magnification. Each cell contacting an SU-ECM was scored for its position relative to the exterior or interior surfaces. A cell was judged to have invaded if it was located on an interior surface below the focal plane passing through the upper surface of the SU-ECM, but above the focal plane passing through its lower surface. The minimum viability of the cells in each assay was always ascertained at the time of assay by determining the fraction of spread, adherent cells on the bottom of each well scored.
(§4) An invasion frequency is defined as the fraction of cells in contact with basement membranes which were located in their interiors at the time of assay. Thus, an invasion frequency of 1 denotes invasion by 100% of the cells in contact with basement membranes. Invasion frequencies were determined multiple times for each cell type assayed. For each type of cell assayed the mean and standard deviation of the invasion frequencies were calculated.
(§5) The method of Example 4 is employed, with the addition of varying concentrations of the PHSCN peptide.
(§6) Thus, the procedure in Example 4 provides a method for determining the inhibitory potential of the PHSCN peptide by comparing the number of cell invasions in the presence of the PHSCN peptide, with the number of cell invasions in the absence of the PHSCN peptide.

[2] = tested on: metastatic DU-145 prostate cancer cells; test: SU-ECM invasion assay, DU-145 cells; assay type: cell-based, human; conditions: PHSRN sequence of fibronectin alone; Example 4
Experimental: as §1
as §2, with “Cells were harvested by rinsing in Hanks balanced salt solution, followed by brief treatment with 0.25% trypsin, 0.02% EDTA, and pelleting and resuspension in the appropriate medium with or without 5% FCS at a density of about 50,000 cells per ml.” left out
as §3, §4, §5, §6
In this example, in vitro invasion of cancer cells into substrates is inhibited with peptides that have been chemically modified with protecting groups and peptides having protecting groups as well as the modification wherein an L-amino acid has been replaced with the D-isomer. PHSCN peptide, blocked PHSCN peptide, and blocked PHSCN peptide with a D-cysteine instead of the L-isomer, were tested (Figure 4A, 4B).
In this example, in vitro invasion of cancer cells into substrates is inhibited with non-peptide mimetics in comparison with chemically modified peptides (on a molar basis). The peptides of Example 10 (i.e. peptides chemically modified with protecting groups and peptides having protecting groups as well as the modification wherein an L-amino acid has been replaced with the D-isomer) were compared with the non-peptide mimetics DL-N-Acetylhomocysteinethiolactone, Thiobutyrolactone, and Mercaptopropionic acid, in order to investigate the structure activity relationship for invasion inhibition by interaction with the PHSRN-binding pocket of the α5β1 fibronectin receptor (Figure 7)

[3] = tested on: normal, neonatal fibroblasts; test: Invasion of fibronectin-depleted Matrigel by fibroblasts; assay type: cell-based; conditions: gelatin plus antibody panned Matrigel; Figure 2
Experimental: Anti-fibronectin antibody-coated wells: Wells of a 24-well plate were coated with an anti-fibronectin antibody. A mouse monoclonal antibody to human fibronectin was obtained from Oncogene Science (Catalog #CP13). Each well was incubated with 1 ml of antibody at a concentration of […] for 2 hours at room temperature. Each well was then incubated with a solution of 3% BSA in PBS for 2 hours at room temperature. Following the two incubation periods, the wells were thoroughly washed with PBS and stored at -20 °C until use.
Depleting Matrigel of Fibronectin: Matrigel was panned over eight gelatin-coated wells (as described above in Example 2) to remove most of the fibronectin and its fragments. Thereafter, the Matrigel was placed in the antibody-coated wells to remove any remaining fragments of fibronectin which contain the cell-binding domain but not the gelatin-binding domain. The Matrigel was incubated in an ice bucket on an orbital shaker at 4 °C for 2 hours. Once the Matrigel was depleted, it was collected in Eppendorf tubes. The fibronectin-depleted Matrigel was plated on a 48-well plate (150 µl/well), sterilized under a UV light for 10 minutes and incubated at 37 °C overnight. The Matrigel formed a gel and the following day, cells were added to the wells. […]

PHSRN [PHSRN]
induction of SUM-52 cell invasion of SU-ECM [1]: induced to invade
induction of DU-145 cell invasion of SU-ECM [2]: induced to invade
induction of fibroblast invasiveness on fibronectin-depleted Matrigel [3]: could be induced
